The results in this text go back to patent US9790211B2, “5-amino-quinoline-8-carboxamide derivatives as 5-HT4 receptor agonists” (SUVEN LIFE SCIENCES LIMITED, priority 2013, dated 2017).

Like-named read-outs stand apart in the source and are kept apart here.

Series [1] is described as follows: Rodent pharmacokinetic study. Conditions: plasma, Wistar/Male rat; for bioavailability: 3 mg/kg oral vs 1 mg/kg intravenous. Type of series: in vivo, Male wistar rats. The procedure:
Male wistar rats (225±25 grams) were used as experimental animals. Three to five animals were housed in each cage. Two days prior to dosing day, male wistar rats (225-250 grams) were anesthetized with isoflurane for surgical placement of jugular vein catheter. Animals were fasted over night before oral dosing (p.o) and food pellets were allowed 2 hours post dosing, whereas during intravenous dosing food and water were provided as ad libitum. Three rats were dosed with compounds of formula (I) (3 mg/kg) orally and intravenously (1 mg/kg).
At each time point blood was collected through jugular vein and immediately replenish with an equivalent volume of normal saline from freely moving rats. Collected blood was transferred into a labeled eppendr off containing 10 μL of heparin as anticoagulant. Typically blood samples were collected as following time points: Pre dose, 0.08 (only i.v.), 0.25, 0.5, 1, 2, 4, 6, 8, and 24 hours post dose (n=3). Blood was centrifuged at 4000 rpm for 10 minutes. Plasma was prepared and stored frozen at −20° C. until analysis. The concentrations of the compounds of formula (I) were quantified in plasma by qualified LC-MS/MS method using suitable extraction technique. The compounds of formula (I) were quantified in the calibration range around 2-2000 ng/mL in plasma. Study samples were analyzed using calibration samples in the batch and quality control samples spread across the batch.
Pharmacokinetic parameters Cmax, Tmax, AUC1, T1/2 and Bioavailability were calculated by non-compartmental model using standard non-coinpartmental model by using WinNonLin 5.0.1 or Phoenix WinNonlin 6.2 version Software package.

The target of series [2] is T1, recombinant human 5-HT4 receptor (Homo sapiens, UniProt Q13639).
T1 construct: expressed in transfected cells
Description: Determination of EC50 values for 5-HT4 receptor (CHO cells, pCRE-Luc reporter). The series is classed as cell-based. The settings on record: for EC50: 4 hours incubation; for Emax: CHO. In short, it runs like this:
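CHO cells stably expressing human 5-HT4 receptor with a CRE-luciferase reporter, serum-starved overnight, then exposed to increasing compound concentrations in OptiMEM for 4 h at 37 °C. Cells lysed and luciferase luminescence plotted against concentration.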

Series [3] in a line: Rodent brain penetration study. The series is classed as in vivo, Male Wistar rats. Conditions: 3 mg/kg oral (gavage). On the procedure:
Male Wistar rats (225±25 grams) were used as experimental animals. Three animals were housed in each cage. Animals were given water and food ad libitum throughout the experiment and maintained on a 12 hours light/dark cycle. Brain penetration was determined in discrete manner in rats. One day prior to dosing day, male wistar rats (225-250 grams) were acclimatized. After acclimatization the rats were grouped according to their weight. In each group, 3 animals were kept in individual cage and allowed free access to food and water. At each time point (0.50, 1, and 2 hours) n=3 animals were used. The compounds of formula (I) were suitably preformulated and administered orally at (free base equivalent) 3 mg/kg. Blood samples were removed via, cardiac puncture by using isoflurane anesthesia. The animals were sacrificed to collect brain tissue. Plasma was separated and brain samples were homogenized and stored frozen at −20° C. until analysis. The concentrations of the compounds of formula (I) in plasma and brain were determined using LC-MS/MS method. The compounds of formula (I) were quantified in plasma and brain homogenate by qualified LC-MS/MS method using suitable extraction technique. The compounds of formula (I) were quantified in the calibration range of 1-500 ng/mL in plasma and brain homogenate. Study samples were analyzed using calibration samples in the batch and quality control samples spread across the batch. Extent of brain-plasma ratio was calculated (Cb/Cp).

A further series concerns Male Wistar rats. Description: Object recognition task model. The series is classed as in vivo. The settings on record: dose mg/kg: Ex 1 0.1, Ex 2 0.03, Ex 4 0.03, Ex 13 1, Ex 23 0.01, Ex 37 10, Ex 43 0.3; for Exploration time mean ± S.E.M, Familiar object / Exploration time mean ± S.E.M, Novel object: choice trial T2, p.o.; for Inference: p.o.
Where [4] appears, read: CHO cells, human 5-HT4 receptor, luciferase reporter.

T1 sequence (Q13639 whole entry): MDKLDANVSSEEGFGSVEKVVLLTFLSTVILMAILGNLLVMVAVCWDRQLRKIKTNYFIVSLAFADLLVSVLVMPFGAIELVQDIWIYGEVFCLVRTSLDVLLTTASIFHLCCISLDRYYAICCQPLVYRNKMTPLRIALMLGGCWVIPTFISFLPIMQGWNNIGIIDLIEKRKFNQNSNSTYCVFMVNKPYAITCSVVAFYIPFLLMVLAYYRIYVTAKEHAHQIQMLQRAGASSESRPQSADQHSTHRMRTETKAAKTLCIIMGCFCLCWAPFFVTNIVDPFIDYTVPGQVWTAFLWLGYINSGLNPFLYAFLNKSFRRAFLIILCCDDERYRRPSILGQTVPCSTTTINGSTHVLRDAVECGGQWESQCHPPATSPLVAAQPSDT

With `Nc1c(Cl)cc(C(=O)NCC2CCN(CC3CCOCC3)CC2)c2ncccc12.O=C(O)/C=C/C(=O)O` [Example 1, 5-Amino-6-chloro-N-{[1-(tetrahydro-2H-pyran-4-ylmethyl)-4-piperidinyl]methyl}quinoline-8-carboxamide hemifumarate], in series [1] (1 mg/kg intravenous (bolus)), the Cmax – broadly, the highest concentration seen after dosing – stood at 149 ± 6 ng/mL; the Tmax (usually the time from dosing to the highest level) was found to be 0.08 h; the half-life (as a rule, the time in which the quantity being followed falls by half) is 1.9 ± 0.7 h. Moreover, in series [1] (3 mg/kg oral (gavage)), the AUC(0-t) (commonly exposure summed from dosing to a finite time, without extrapolation to infinity) worked out at 240 ± 35 ng·h/mL; the Cmax came to 121 ± 25 ng/mL; the Tmax was found to be 0.42 ± 0.14 h; the half-life was 4 ± 1.1 h. The bioavailability – broadly, the share of a dose that reaches the circulation, judged against a reference dose that is usually intravenous – in series [1] was 51 ± 5%. For the same compound, in series [2] (setting [4]), the EC50 (as a rule, the concentration giving half of the maximal effect) came to 0.04 nM. The Emax (in general, the maximal effect, on the per cent scale that the assay sets) in series [2] (CHO cells, human 5-HT4 receptor, luciferase reporter, read-out: Emax) was found to be 76%. The “Single dose Brain Penetration (Cb/Cp)” value in series [3] (Wistar/Male rat) is 0.48 ± 0.03. In the series with Male Wistar rats, the “Exploration time mean ± S.E.M, Familiar object” value is 5.94 ± 0.71 s; the “Exploration time mean ± S.E.M, Novel object” value stood at 16.09 ± 1.75 s; the Inference result is given as “Active”.

`Nc1c(Cl)cc(C(=O)NCC2CCN(CC3CCOCC3)CC2)c2ncccc12.O=C(O)C(O)C(O)C(=O)O` [Example 13, 5-Amino-6-chloro-N-{[1-(tetrahydro-2H-pyran-4-ylmethyl)-4-piperidinyl]methyl} quinoline-8-carboxamide L(+)-tartarate]: in series [1] (1 mg/kg intravenous (bolus)), the AUC(0-t) was 211 ± 20 ng·h/mL, the Cmax turned out to be 168 ± 12 ng/mL, the Tmax is 0.08 h and the half-life was 1.5 ± 0.3 h. Further, in series [1] (3 mg/kg oral (gavage)), the AUC(0-t) was found to be 235 ± 25 ng·h/mL, the Cmax is 76 ± 3 ng/mL, the time of peak concentration (Tmax) worked out at 0.5 h and the half-life is 1.7 ± 0.3 h. Besides, in series [1], the bioavailability stood at 37 ± 4%. Moreover, in series [2], the Emax turned out to be 70%. Besides, the EC50 in series [2] (setting [4]) amounted to 0.09 nM. For the same compound, the Kp in series [3] (male, Wistar, rat, brain, po, 3 mg/kg, read-out: Single dose Brain Penetration (Cb/Cp)) was 0.41 ± 0.04. Further, in the series on Male Wistar rats, the “Exploration time mean ± S.E.M, Familiar object” value is 8.64 ± 1.33 s; the “Exploration time mean ± S.E.M, Novel object” value was determined as 15.11 ± 1.81 s; the Inference result is “Active”.
